Test results from US8680275B2, “Fused heterocyclic compounds as orexin receptor modulators” (Janssen Pharmaceutica NV, priority 2009, dated 2014).
Where two headings read alike, the source gives them in different places.

How the values were obtained:
human orexin-2 receptor = human orexin-2 receptor (Homo sapiens (Human), UniProt O43614); experiment: Human orexin 2 receptor radioligand binding ([3H]-EMPA competition); details: HEK293 cells stably expressing human orexin-2 receptor; [3H]-EMPA 5 nM final; read-out: OR-2 Ki
Chain of human orexin-2 receptor (O43614 whole entry): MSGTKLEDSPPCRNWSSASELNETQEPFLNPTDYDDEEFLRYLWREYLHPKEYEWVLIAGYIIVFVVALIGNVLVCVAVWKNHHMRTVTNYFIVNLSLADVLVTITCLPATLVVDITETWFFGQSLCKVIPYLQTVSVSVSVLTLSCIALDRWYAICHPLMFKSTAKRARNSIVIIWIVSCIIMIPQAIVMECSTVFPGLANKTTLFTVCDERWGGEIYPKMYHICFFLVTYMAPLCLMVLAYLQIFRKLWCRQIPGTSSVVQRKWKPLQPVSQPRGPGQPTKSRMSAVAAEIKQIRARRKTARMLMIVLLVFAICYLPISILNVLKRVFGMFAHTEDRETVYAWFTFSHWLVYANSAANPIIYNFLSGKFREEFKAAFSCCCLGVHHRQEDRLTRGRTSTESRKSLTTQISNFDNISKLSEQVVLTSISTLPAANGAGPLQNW
Protocol: (§1) The in vitro affinity of the compounds for the human orexin-1 and orexin-2 receptors was determined by competitive radioligand binding using [^3H]SB SB674042 (1-(5-(2-fluoro-phenyl)-2-methyl-thiazol-4-yl)-1-((S)-2-(5-phenyl-(1,3,4)oxadiazol-2-ylmethyl)-pyrrolidin-1-yl)methanone) (Langmead et al., British Journal of Pharmacology 2004, 141:340-346.) and [^3H]EMPA (N-ethyl-2[(6-methoxy-pyridin-3-yl)-(toluene-2-sulfonyl)-amino]-N-pyridin-3-ylmethyl acetamide) (Malherbe et al., British Journal of Pharmacology, 2009, 156(8), 1326-1341), respectively.
Human Orexin 2 Receptor Radioligand Binding Studies
HEK293 stably expressing human orexin-2 receptor (Genebank accession number NM_001526) were grown to confluency in DMEM/F12 (Gibco, Cat #11039), in DMEM, 10% FBS, 1× Pen/Strep, 1× NaPyruvate, 1×HEPES, 600 ug/ml G418 media on 150 cm^2 tissue culture plates, washed with 5 mM EDTA in PBS (HyClone Dulbecco's Phosphate Buffered Saline 1× with Calcium and Magnesium, Cat #SH30264.01, hereafter referred to simply as PBS) and scraped into 50 ml tubes. After centrifugation (2K xG, 10 min at 4° C.), the supernatant was aspirated and the pellets frozen and stored at −80° C. Cells were resuspended in PBS in the presence of 1 tablet of protease inhibitor cocktail (Roche, Cat. #11836145001) per 50 mL. […] Competition binding experiments in 96 well polypropylene plates were performed using [^3H]-EMPA (Moravek Corporation, specific activity=27 Ci/mmol), diluted to a […] concentration in PBS (5 nM final concentration). Compounds were solubilized in 100% DMSO (Acros Organics, Cat. #61042-1000) and tested over a range of 7 concentrations (from 0.1 nM to 10 μM). The final concentration of DMSO in the reactions is equal to or less than 0.1%. Total and nonspecific binding was determined in the absence and presence of 10 μM (N-[2-(3,4-dimethoxyphenyl)ethyl]-N-methylnaphthalene-1-carboxamide, CAS Registry #1089563-88-1). The total volume of each reaction is 200 μL (20 μL of diluted compounds, 80 μL of [^3H]-EMPA diluted in PBS and 100 μL of the cell suspension). Reactions were run for 60 min at room temperature and terminated by filtration through GF/C filter plates (PerkinElmer, Cat. #6005174) presoaked in 0.3% polyethylenimine using the cell harvester (Perkin Elmer Filtermate). The plates were washed 3 times by aspirating 30 ml PBS through the plates. Plates were dried in 55° C. oven for 60 min, scintillation fluid was added, and the radioactivity was counted on a Topcount (Packard).

human orexin 1 receptor = human orexin 1 receptor (Homo sapiens (Human), UniProt O43613); experiment: Human orexin 1 receptor radioligand binding ([3H]-SB674042 competition); details: read-out: OR-1 Ki
Chain of human orexin 1 receptor (O43613 whole entry): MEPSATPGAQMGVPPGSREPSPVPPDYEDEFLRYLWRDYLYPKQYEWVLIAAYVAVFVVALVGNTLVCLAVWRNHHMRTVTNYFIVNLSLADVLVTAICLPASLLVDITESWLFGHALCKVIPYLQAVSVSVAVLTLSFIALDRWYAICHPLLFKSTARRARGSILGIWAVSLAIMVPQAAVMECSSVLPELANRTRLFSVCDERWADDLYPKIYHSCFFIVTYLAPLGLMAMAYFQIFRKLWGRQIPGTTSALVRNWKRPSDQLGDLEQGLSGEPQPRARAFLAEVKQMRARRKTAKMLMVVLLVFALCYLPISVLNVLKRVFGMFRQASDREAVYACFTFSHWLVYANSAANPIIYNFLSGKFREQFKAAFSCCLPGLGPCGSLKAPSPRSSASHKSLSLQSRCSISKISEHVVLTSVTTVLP
Protocol: as §1
Human Orexin 1 Receptor Radioligand Binding Studies
Chinese ovary cells (CHO) stably expressing human orexin 1 receptor (Genebank accession number NM_001526) were grown to confluency in DMEM/F12 (Gibco, Cat #11039), 10% FBS, 1× Pen/Strep, 600 μg/mL G418 media on 150 cm^2 tissue culture plates, washed with 5 mM EDTA in PBS (HyClone Dulbecco's Phoshpate Buffered Saline 1× with Calcium and Magnesium, Cat #SH30264.01, hereafter referred to simply as PBS) and scraped into 50 ml tubes. After centrifugation (2K xG, 10 min at 4° C.), the supernatant was aspirated and the pellets frozen and stored at −80° C. Cells were resuspended in PBS in the presence of 1 tablet of protease inhibitor cocktail (Roche, Cat. #11836145001) per 50 mL. […] Compounds were solubilized in 100% DMSO (Acros Organics, Cat. #61042-1000) and tested over a range of 7 concentrations (from 0.1 nM to 10 μM). The final concentration of DMSO in the reactions is equal to or less than 0.1%. Total and nonspecific binding was determined in the absence and presence of 10 μM (1-(6,8-difluoro-2-methylquinolin-4-yl)-3-[4-(dimethylamino)phenyl]urea, CAS Registry #288150-92-5). The total volume of each reaction is 200 μL (20 μL of diluted compounds, 80 μL of [^3H]-SB674042 diluted in PBS and 100 μL of the cell suspension). Reactions were run for 60 min at room temperature and terminated by filtration through GF/C filter plates (PerkinElmer, Cat. #6005174) presoaked in 0.3% polyethylenimine using the cell harvester (PerkinElmer Filtermate). The plates were washed 3 times by aspirating 30 ml PBS through the plates. Plates were dried in 55° C. oven for 60 min, scintillation fluid was added, and the radioactivity was counted on a Topcount (Packard).

[1] = CHO cells stably expressing human orexin 1 receptor, [3H]-SB674042 4 nM final

Ki (human orexin-2 receptor) [nM] | Ki (human orexin 1 receptor; [1]) [nM] | SMILES | Ki (human orexin 1 receptor) [nM]
91 | 793 | Cc1cccc(C(=O)N2CC[C@H]3CN(c4cc(C(F)(F)F)ccn4)[C@H]3C2)c1-n1nccn1 [Example 147, (1R,6S)-3-{[3-Methyl-2-(2H-1,2,3-triazol-2-yl)phenyl]carbonyl}-8-[4-(trifluoromethyl)pyridin-2-yl]-3,8-diazabicyclo[4.2.0]octane] | –
35 | 1300 | Cc1cc(C)nc(N2C[C@@H]3CCN(C(=O)c4cc(F)ccc4-c4ccn(C)n4)C[C@@H]32)n1 [Example 188, (1R,6S)-8-(4,6-Dimethylpyrimidin-2-yl)-3-{[5-fluoro-2-(1-methyl-1H-pyrazol-3-yl)phenyl]carbonyl}-3,8-diazabicyclo[4.2.0]octane] | –
73 | 480 | Cc1cc(N2C[C@@H]3CCN(C(=O)c4c(F)cccc4-n4nccn4)C[C@@H]32)nc(N(C)C)n1 [Example 44, (1R,6S)-[8-(2-Dimethylamino-6-methyl-pyrimidin-4-yl)-3,8-diaza-bicyclo[4.2.0]oct-3-yl]-(2-fluoro-6-[1,2,3]triazol-2-yl-phenyl)-methanone] | –
126 | 7000 | Cc1cc(C)nc(N2C[C@@H]3CCN(C(=O)c4ncoc4-c4cccc(Cl)c4)C[C@@H]32)n1 [Example 178, (1R,6S)-3-{[5-(3-Chlorophenyl)-1,3-oxazol-4-yl]carbonyl}-8-(4,6-dimethylpyrimidin-2-yl)-3,8-diazabicyclo[4.2.0]octane] | –
36 | 265 | O=C(c1cc(F)ccc1-n1nccn1)N1CC[C@H]2CN(c3cccc(C(F)(F)F)n3)[C@H]2C1 [Example 129, (1R,6S)-3-{[5-Fluoro-2-(2H-1,2,3-triazol-2-yl)phenyl]carbonyl}-8-[6-(trifluoromethyl)pyridin-2-yl]-3,8-diazabicyclo[4.2.0]octane] | –
36 | 550 | Cc1cc(C)nc(N2C[C@@H]3CCN(C(=O)c4cccc(C)c4-n4cccn4)C[C@@H]32)n1 [Example 133, (1R,6S)-8-(4,6-Dimethylpyrimidin-2-yl)-3-{[3-methyl-2-(1H-pyrazol-1-yl)phenyl]carbonyl}-3,8-diazabicyclo[4.2.0]octane] | –
8 | 169 | Cc1cc(C)nc(N2C[C@@H]3CCN(C(=O)c4ccccc4-c4ccccc4)C[C@@H]32)n1 [Example 3, (1R,6S)-Biphenyl-2-yl-[8-(4,6-dimethyl-pyrimidin-2-yl)-3,8-diaza-bicyclo[4.2.0]oct-3-yl]-methanone] | –
140 | 1200 | COc1ccc(Br)c(C(=O)N2CC[C@H]3CN(c4nc(C)cc(C)n4)[C@H]3C2)c1F [Example 154, (1R,6S)-3-[(6-Bromo-2-fluoro-3-methoxyphenyl)carbonyl]-8-(4,6-dimethylpyrimidin-2-yl)-3,8-diazabicyclo[4.2.0]octane] | –
115 | 1960 | Cc1cncc(N2C[C@@H]3CCN(C(=O)c4ccccc4-n4nccn4)C[C@@H]32)n1 [Example 112, (1R,6S)-8-(6-Methylpyrazin-2-yl)-3-{[2-(2H-1,2,3-triazol-2-yl)phenyl]carbonyl}-3,8-diazabicyclo[4.2.0]octane] | –
44 | 18 | Cc1ccc(-c2ccccc2C(=O)N2CC[C@H]3CN(c4cnc5ccccc5n4)[C@H]3C2)cc1 [Example 10, (1R,6S)(4′-Methyl-biphenyl-2-yl)-(8-quinoxalin-2-yl-3,8-diaza-bicyclo[4.2.0]oct-3-yl)-methanone] | –
36 | 845 | Cc1cc(C)nc(N2C[C@@H]3CCN(C(=O)c4cccc(F)c4-n4nccn4)C[C@@H]32)c1 [Example 148, (1R,6S)-8-(4,6-Dimethylpyridin-2-yl)-3-{[3-fluoro-2-(2H-1,2,3-triazol-2-yl)phenyl]carbonyl}-3,8-diazabicyclo[4.2.0]octane] | –
92 | 274 | O=C(c1ccccc1-c1cccs1)N1C[C@@H]2CN(c3nccc(-c4ccccc4)n3)[C@@H]2C1 (single isomer, unassigned) [Example 55, 6-(4-Phenylpyrimidin-2-yl)-3-[(2-thiophen-2-ylphenyl)carbonyl]-3,6-diazabicyclo[3.2.0]heptane] | –
1400 | ≥ 10000 | O=C(c1cc(F)ccc1-n1nccn1)N1CC[C@H]2CN(c3cnnc(Cl)c3)[C@H]2C1 [Example 87, (1R,6S)-8-(6-Chloropyridazin-4-yl)-3-{[5-fluoro-2-(2H-1,2,3-triazol-2-yl)phenyl]carbonyl}-3,8-diazabicyclo[4.2.0]octane] | –
680 | 10000 | Cc1cc(N2C[C@@H]3CCN(C(=O)c4cc(F)ccc4-n4nccn4)C[C@@H]32)nc(N)n1 [Example 186, 4-[(1R,6S)-3-{[5-Fluoro-2-(2H-1,2,3-triazol-2-yl)phenyl]carbonyl}-3,8-diazabicyclo[4.2.0]oct-8-yl]-6-methylpyrimidin-2-amine] | –
1100 | 10000 | Cc1cc(C)nc(N2C[C@@H]3CCN(C(=O)c4c(C)noc4-c4cc(C)on4)C[C@@H]32)n1 [Example 179, 4′-{[(1R,6S)-8-(4,6-Dimethylpyrimidin-2-yl)-3,8-diazabicyclo[4.2.0]oct-3-yl]carbonyl}-3′,5-dimethyl-3,5′-biisoxazole] | –

SMILES | Ki (human orexin-2 receptor) [nM] | Ki (human orexin 1 receptor; [1]) [nM] | Ki (human orexin 1 receptor) [nM]
Cc1ccc(-n2nccn2)c(C(=O)N2CC[C@H]3CN(c4nc(C)cc(C)n4)[C@H]3C2)c1 [Example 26, (1R,6S)-[8-(4,6-Dimethyl-pyrimidin-2-yl)-3,8-diaza-bicyclo[4.2.0]oct-3-yl]-(5-methyl-2-[1,2,3]triazol-2-yl-phenyl)-methanone] | 13 | 52 | –
Cc1cnc(N2C[C@@H]3CCN(C(=O)c4cccc(F)c4-n4nccn4)C[C@@H]32)cn1 [Example 103, (1R,6S)-3-{[3-Fluoro-2-(2H-1,2,3-triazol-2-yl)phenyl]carbonyl}-8-(5-methylpyrazin-2-yl)-3,8-diazabicyclo[4.2.0]octane] | 360 | – | 10000
COc1ccc(C(=O)N2CC[C@H]3CN(c4cc(C(F)(F)F)ccn4)[C@H]3C2)c(-n2nccn2)c1 [Example 146, (1R,6S)-3-{[4-Methoxy-2-(2H-1,2,3-triazol-2-yl)phenyl]carbonyl}-8-[4-(trifluoromethyl)pyridin-2-yl]-3,8-diazabicyclo[4.2.0]octane] | 299 | 9000 | –
CN(C)c1ccnc(N2C[C@@H]3CCN(C(=O)c4cccc(F)c4-c4ncccn4)C[C@@H]32)c1 [Example 143, 2-{(1R,6S)-3-[(3-Fluoro-2-pyrimidin-2-ylphenyl)carbonyl]-3,8-diazabicyclo[4.2.0]oct-8-yl}-N,N-dimethylpyridin-4-amine] | 9000 | 10000 | –
